Columns and labels:
[1] = target: Serotonin (5-Hydroxytryptamine) 5-HT2B (Homo sapiens (Human), UniProt P41595); assay: Radioligand binding assay No. 271700; details: test substance 10 μM, read-out: Inhibitory rate (%), Serotonin (5-Hydroxytryptamine) 5-HT2B
Tachykinin NK1 = Tachykinin NK1 (Homo sapiens (Human), UniProt P25103); assay: Radioligand binding assay No. 255520; details: test substance 10 μM, read-out: Inhibitory rate (%), Tachykinin NK1
Phorbol Ester = assay: Radioligand binding assay No. 264500; details: test substance 10 μM; mouse
[2] = tested on: non-kinase drug target ligands listed in Table 5; assay: Drug target radioligand competitive binding assay, whole panel of Table 5; details: test substance 10 μM, summary of Table 5
Glutamate, NMDA, Glycine = Glutamate, NMDA, Glycine (Rattus norvegicus (Rat), UniProt P35439); assay: Radioligand binding assay No. 232910; details: test substance 10 μM, read-out: Inhibitory rate (%), Glutamate, NMDA, Glycine
PC-3 = assay: In vitro cytological inhibitory activity (XTT); assay type: cell-based; details: Homo sapiens, 72 hrs
Method: PC-3: Human prostatic carcinoma cell line;
(§1) 1. Preparation of agents and compounds:
(§2) • 1.1 Preparation of phosphoric acid buffering solution (PBS): 8 g NaCl, 0.2 g KCl, 1.44 g Na2HPO4 and 0.24 g KH2PO4 were weighed and added to 800 mL ultrapure water. The mixture was adjusted to pH=7.4, and ultrapure water was added to the metered volume of IL. Then the autoclaving was conducted for 20 mins. • 1.2 Preparation of XTT detection working solution: 100 mg (2,3-Bis-(2-methoxy-4-nitro-5-sulfophenyl)-2H-tetrazolium-5-carboxanilide); 2,3-bis(2-methoxy-4-nitro-5-sulfophenyl)-5-[(phenylamino)carbonyl]-2H-tetrazolium hydroxide (XTT) powder was weighed, and dissolved under protection from light 300 mL of phenol red-free and serum-free RPMI1640 culture, which had been warmed up to 50° C. The resulting mixture was filtered, packaged and used immediately or in one week. The complete process was conducted under protection from light. • 1.3 Preparation of the test compound • Preparation of the stock solution of the test compound: The test compound powder was dissolved in DMSO in a concentration of 10 mM. • Preparation of the gradiently diluted solution of the test compound: 10 mM of the stock solution of the test compound was successively and gradiently diluted with DMSO by 4 folds for 10 concentrations. […]

A549 = assay: In vitro cytological inhibitory activity (XTT); assay type: cell-based; details: Homo sapiens, 72 hrs
Method: A549: Human lung cancer cell line;
as §1, §2

Sequence of Serotonin (5-Hydroxytryptamine) 5-HT2B (P41595 whole entry): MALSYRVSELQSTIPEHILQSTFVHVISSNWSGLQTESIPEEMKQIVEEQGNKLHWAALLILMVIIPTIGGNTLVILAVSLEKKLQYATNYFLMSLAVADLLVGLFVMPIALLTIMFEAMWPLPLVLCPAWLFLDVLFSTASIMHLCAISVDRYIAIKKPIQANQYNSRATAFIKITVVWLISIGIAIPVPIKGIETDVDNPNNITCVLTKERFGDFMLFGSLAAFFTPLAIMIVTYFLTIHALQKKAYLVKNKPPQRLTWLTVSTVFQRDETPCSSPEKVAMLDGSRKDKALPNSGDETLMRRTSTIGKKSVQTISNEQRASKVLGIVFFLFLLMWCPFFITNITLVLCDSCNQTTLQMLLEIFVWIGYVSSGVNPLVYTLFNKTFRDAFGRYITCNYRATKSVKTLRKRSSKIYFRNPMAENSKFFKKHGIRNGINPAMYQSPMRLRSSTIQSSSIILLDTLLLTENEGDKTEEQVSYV
Sequence of Tachykinin NK1 (P25103 whole entry): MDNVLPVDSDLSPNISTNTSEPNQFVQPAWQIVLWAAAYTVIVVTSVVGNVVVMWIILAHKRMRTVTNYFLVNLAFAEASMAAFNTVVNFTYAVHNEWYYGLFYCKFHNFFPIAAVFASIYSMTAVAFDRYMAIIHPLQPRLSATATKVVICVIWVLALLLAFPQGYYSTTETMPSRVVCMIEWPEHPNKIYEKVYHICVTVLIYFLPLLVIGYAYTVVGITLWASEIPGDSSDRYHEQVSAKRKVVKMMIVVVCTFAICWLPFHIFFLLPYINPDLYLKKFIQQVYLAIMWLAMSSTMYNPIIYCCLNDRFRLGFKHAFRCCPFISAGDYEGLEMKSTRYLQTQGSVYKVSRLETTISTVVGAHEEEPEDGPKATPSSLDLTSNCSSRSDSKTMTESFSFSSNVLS

| SMILES | inhibition at 10 µM [1] [%] | inhibition at 10 µM (Tachykinin NK1) [%] | Inhibitory rate (%), Phorbol Ester (Phorbol Ester) [%] | inhibitory rates on the listed non-kinase drug target ligands [2] | inhibition at 10 µM (Glutamate, NMDA, Glycine) [%] | IC50 (PC-3) [nM] | IC50 (A549) [nM] |
| --- | --- | --- | --- | --- | --- | --- | --- |
| Nc1ccc(-c2ccc3ncc4c(=O)[nH]c(=O)n(-c5cccc(C(F)(F)F)c5)c4c3n2)cn1 [Compound 5, 9-(6-aminopyridin-3-yl)-1-(3-(trifluoromethyl)phenyl)pyrimido[5,4-c][1,5]naphthyridine-2,4(1H,3H)-dione] | 13 | 20 | 27 | less than 50% | 29 |  |  |
| O=c1[nH]c(=O)n(-c2cccc(C(F)(F)F)c2)c2c1cnc1ccc(-c3cnc4[nH]ccc4c3)nc12 [Compound 30, 9-(1H-pyrrolo[2,3-b]pyridin-5-yl)-1-(3-(trifluoromethyl)phenyl)pyrimido[5,4-c][1,5]naphthyridine-2,4(1H,3H)-dione] |  |  |  |  |  | 25.6 | 107 |
